This assay deals with p97/VCP (Homo sapiens, UniProt P55072). The experiment in a line: ATPase assay on purified human p97/VCP. It counts as biochemical.
Chain of p97/VCP (P55072 2-806): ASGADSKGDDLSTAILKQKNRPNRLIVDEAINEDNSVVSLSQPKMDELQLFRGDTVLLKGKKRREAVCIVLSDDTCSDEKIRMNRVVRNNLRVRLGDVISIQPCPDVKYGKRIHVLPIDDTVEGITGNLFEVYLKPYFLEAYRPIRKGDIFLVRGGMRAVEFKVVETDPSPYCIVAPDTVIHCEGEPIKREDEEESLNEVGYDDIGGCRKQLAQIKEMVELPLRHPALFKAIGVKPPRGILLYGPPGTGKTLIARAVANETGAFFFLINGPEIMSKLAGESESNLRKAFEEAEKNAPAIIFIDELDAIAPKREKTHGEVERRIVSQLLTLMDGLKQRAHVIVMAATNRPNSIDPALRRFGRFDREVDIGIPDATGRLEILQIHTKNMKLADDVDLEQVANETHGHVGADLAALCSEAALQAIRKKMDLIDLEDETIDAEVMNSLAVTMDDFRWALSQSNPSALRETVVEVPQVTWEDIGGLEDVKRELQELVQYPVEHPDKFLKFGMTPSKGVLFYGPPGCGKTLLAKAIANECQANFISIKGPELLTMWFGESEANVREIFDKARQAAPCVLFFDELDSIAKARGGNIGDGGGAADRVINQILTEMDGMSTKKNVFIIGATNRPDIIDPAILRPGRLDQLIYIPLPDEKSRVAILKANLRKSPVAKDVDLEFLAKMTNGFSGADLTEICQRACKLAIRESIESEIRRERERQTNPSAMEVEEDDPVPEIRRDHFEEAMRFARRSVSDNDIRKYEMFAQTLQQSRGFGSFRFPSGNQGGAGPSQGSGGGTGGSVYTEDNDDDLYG

Usually IC50 stands for the concentration that gives 50% inhibition. The molecule `NCCc1cn(-c2nc(NCc3ccccc3)c3ccccc3n2)c2ccccc12` [FQ393, 2-[3-(2-Aminoethyl)-1H-indol-1-yl]-N-benzylquinazolin-4-amine] came in with an IC50 of 900 ± 110 nM.

For the origin of these results see article PMC7745420 (ACS Omega, 2020).
